Data from BindingDB's records for doi:10.1007/s002109900044 (Universitat Wurzburg, 1999).

Assays:
Adenosine receptor A1 = molecular target: T1, Adenosine receptor A1 (Homo sapiens, UniProt P30542)
T1 sequence (P30542 whole entry): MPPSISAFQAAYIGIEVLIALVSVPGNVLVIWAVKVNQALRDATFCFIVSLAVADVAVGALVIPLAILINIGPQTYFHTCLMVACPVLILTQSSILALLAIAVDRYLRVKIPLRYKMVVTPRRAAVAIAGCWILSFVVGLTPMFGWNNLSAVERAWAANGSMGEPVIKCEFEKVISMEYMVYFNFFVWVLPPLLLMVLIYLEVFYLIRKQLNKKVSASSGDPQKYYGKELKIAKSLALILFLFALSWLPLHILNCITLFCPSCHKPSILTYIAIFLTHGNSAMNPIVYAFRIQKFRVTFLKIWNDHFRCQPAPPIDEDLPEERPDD

Adenosine receptor A2a = Adenosine receptor A2a (Homo sapiens, UniProt P29274)
Adenosine receptor A3 = molecular target: T2, Adenosine receptor A3 (Homo sapiens, UniProt P0DMS8)
T2 sequence (P0DMS8 whole entry): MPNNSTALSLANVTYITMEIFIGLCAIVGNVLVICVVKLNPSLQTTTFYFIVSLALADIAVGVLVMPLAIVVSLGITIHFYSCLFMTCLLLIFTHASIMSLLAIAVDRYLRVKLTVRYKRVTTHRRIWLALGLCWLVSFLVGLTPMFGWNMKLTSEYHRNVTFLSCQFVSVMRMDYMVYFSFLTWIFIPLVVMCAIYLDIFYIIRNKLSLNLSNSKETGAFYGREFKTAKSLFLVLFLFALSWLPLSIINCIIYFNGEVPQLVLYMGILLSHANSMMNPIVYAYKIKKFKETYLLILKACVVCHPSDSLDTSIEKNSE

Adenosine receptor A2a, sequence (P29274 whole entry): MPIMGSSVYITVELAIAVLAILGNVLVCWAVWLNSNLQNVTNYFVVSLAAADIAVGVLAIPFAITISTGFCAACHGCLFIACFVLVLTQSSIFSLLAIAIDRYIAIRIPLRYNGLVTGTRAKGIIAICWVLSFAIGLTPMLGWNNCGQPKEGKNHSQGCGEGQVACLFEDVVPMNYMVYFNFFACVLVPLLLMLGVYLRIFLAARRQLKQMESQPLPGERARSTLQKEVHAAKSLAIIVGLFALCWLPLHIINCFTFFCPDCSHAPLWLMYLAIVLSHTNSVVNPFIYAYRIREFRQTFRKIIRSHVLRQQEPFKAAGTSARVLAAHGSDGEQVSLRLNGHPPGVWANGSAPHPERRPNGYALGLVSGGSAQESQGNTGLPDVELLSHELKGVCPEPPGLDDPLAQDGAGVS

| Ki (Adenosine receptor A1) | Ki (Adenosine receptor A2a) | Ki (Adenosine receptor A3) | Structure (SMILES) |
| --- | --- | --- | --- |
| 8 nM | 180 nM | 14 nM | CCNC(=O)C1OC(n2cnc3c(N)nc(C#CCOc4ccccc4)nc32)C(O)C1O (stereo not given) [2-substituted NECA derivatives, 8] |
| 560 nM | 620 nM | 6.2 nM | CCNC(=O)C1OC(n2cnc3c(N)nc(C#Cc4ccccc4)nc32)C(O)C1O (stereo not given) [5-(6-Amino-2-phenylethynyl-purin-9-yl)-3,4-dihydroxy-tetrahydro-furan-2-carboxylic acid ethylamide] |
| 9.4 nM | 56 nM | 2.4 nM | CCNC(=O)C1OC(n2cnc3c(N)nc(C#CC(C)(O)c4ccccc4)nc32)C(O)C1O (stereo not given) [5-[6-Amino-2-(3-hydroxy-3-phenyl-but-1-ynyl)-purin-9-yl]-3,4-dihydroxy-tetrahydro-furan-2-carboxylic acid ethylamide] |
| 180 nM | – | 27 nM | CCNC(=O)C1OC(n2cnc3c(N)nc(C#CCCCc4ccccc4)nc32)C(O)C1O (stereo not given) [5-[6-Amino-2-(5-phenyl-pent-1-ynyl)-purin-9-yl]-3,4-dihydroxy-tetrahydro-furan-2-carboxylic acid ethylamide] |
| 1.9 nM | 39 nM | 5.5 nM | CCNC(=O)[C@H]1O[C@@H](n2cnc3c(N)nc(C#C[C@@H](O)c4ccccc4)nc32)[C@H](O)[C@@H]1O [6R, (R)-PHPNECA] |
| 2.1 nM | 2 nM | 0.75 nM | CCNC(=O)C1OC(n2cnc3c(N)nc(C#C[C@H](O)c4ccccc4)nc32)C(O)C1O (stereo partly drawn) [6S, (S)-PHPNECA] |
| 2.7 nM | 3.1 nM | 0.42 nM | CCNC(=O)C1OC(n2cnc3c(N)nc(C#CC(O)c4ccccc4)nc32)C(O)C1O (stereo not given) [R,S-PHPNECA] |

Second part, the compound before the results:

| Structure (SMILES) | Ki (Adenosine receptor A1) | Ki (Adenosine receptor A2a) | Ki (Adenosine receptor A3) |
| --- | --- | --- | --- |
| CCNC(=O)C1OC(n2cnc3c(N)nc(C#Cc4ccc(CCC(=O)O)cc4)nc32)C(O)C1O (stereo not given) [3-{4-[6-Amino-9-(5-ethylcarbamoyl-3,4-dihydroxy-tetrahydro-furan-2-yl)-9H-purin-2-ylethynyl]-phenyl}-propionic acid] | 1000 nM | 2200 nM | 42 nM |
| CCNC(=O)C1OC(n2cnc3c(N)nc(C#CC4=CCCCC4)nc32)C(O)C1O (stereo not given) [5-(6-Amino-2-cyclohex-1-enylethynyl-purin-9-yl)-3,4-dihydroxy-tetrahydro-furan-2-carboxylic acid ethylamide] | 87 nM | 100 nM | 28 nM |
| CCNC(=O)C1OC(n2cnc3c(N)nc(C#Cc4nccs4)nc32)C(O)C1O (stereo not given) [5-(6-Amino-2-thiazol-2-ylethynyl-purin-9-yl)-3,4-dihydroxy-tetrahydro-furan-2-carboxylic acid ethylamide] | 12 nM | – | 3.7 nM |
| CCNC(=O)C1OC(n2cnc3c(N)nc(C#CC(C)O)nc32)C(O)C1O (stereo not given) [5-[6-Amino-2-(3-hydroxy-but-1-ynyl)-purin-9-yl]-3,4-dihydroxy-tetrahydro-furan-2-carboxylic acid ethylamide] | 3.3 nM | 14 nM | 1.5 nM |
| CCNC(=O)C1OC(n2cnc3c(N)nc(C#CCC(C)O)nc32)C(O)C1O (stereo not given) [5-[6-Amino-2-(4-hydroxy-pent-1-ynyl)-purin-9-yl]-3,4-dihydroxy-tetrahydro-furan-2-carboxylic acid ethylamide] | 40 nM | 14 nM | 4.1 nM |
| CCNC(=O)C1OC(n2cnc3c(N)nc(C#CCCCC#N)nc32)C(O)C1O (stereo not given) [5-[6-Amino-2-(5-cyano-pent-1-ynyl)-purin-9-yl]-3,4-dihydroxy-tetrahydro-furan-2-carboxylic acid ethylamide] | 38 nM | 25 nM | 4.7 nM |
| CCNC(=O)C1OC(n2cnc3c(N)nc(C#Cc4ccc(C(N)=O)cc4)nc32)C(O)C1O (stereo not given) [5-{6-amino-2-[2-(4-carbamoylphenyl)ethynyl]-9H-purin-9-yl}-N-ethyl-3,4-dihydroxyoxolane-2-carboxamide] | 200 nM | 470 nM | 9.3 nM |
| CCNC(=O)C1OC(n2cnc3c(N)nc(C#Cc4ccco4)nc32)C(O)C1O (stereo not given) [5-{6-amino-2-[2-(furan-2-yl)ethynyl]-9H-purin-9-yl}-N-ethyl-3,4-dihydroxyoxolane-2-carboxamide] | 140 nM | 510 nM | 12 nM |
| CCCCC#Cc1nc(N)c2ncn([C@@H]3O[C@H](C(=O)NCC)[C@H](O)C3O)c2n1 (stereo partly drawn) [(2S,3R,5R)-5-[6-amino-2-(hex-1-yn-1-yl)-9H-purin-9-yl]-N-ethyl-3,4-dihydroxyoxolane-2-carboxamide] | – | 6.4 nM | 2.4 nM |
